Experimental data: patent US10780090B2, “Heteroaryl compounds useful as inhibitors of SUMO activating enzyme” (Millennium Pharmaceuticals, Inc., priority 2014, dated 2020)

Target: recombinant human SAE enzyme (Homo sapiens (Human), UniProt Q9UBT2)
Assay: SAE HTRF enzyme assay
Format: biochemical
Details: for inhibition at 0.111 µM: read-out: Percent Inhibition
In short: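 Sumoylation of Ubc9-GST by SAE was followed at low ATP (0.5 μM), pH 7.5, 24° C. for 105 min. Product was detected by HTRF with antibody pairs against Flag and GST tags.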

Sequence of recombinant human SAE enzyme (Q9UBT2 whole entry): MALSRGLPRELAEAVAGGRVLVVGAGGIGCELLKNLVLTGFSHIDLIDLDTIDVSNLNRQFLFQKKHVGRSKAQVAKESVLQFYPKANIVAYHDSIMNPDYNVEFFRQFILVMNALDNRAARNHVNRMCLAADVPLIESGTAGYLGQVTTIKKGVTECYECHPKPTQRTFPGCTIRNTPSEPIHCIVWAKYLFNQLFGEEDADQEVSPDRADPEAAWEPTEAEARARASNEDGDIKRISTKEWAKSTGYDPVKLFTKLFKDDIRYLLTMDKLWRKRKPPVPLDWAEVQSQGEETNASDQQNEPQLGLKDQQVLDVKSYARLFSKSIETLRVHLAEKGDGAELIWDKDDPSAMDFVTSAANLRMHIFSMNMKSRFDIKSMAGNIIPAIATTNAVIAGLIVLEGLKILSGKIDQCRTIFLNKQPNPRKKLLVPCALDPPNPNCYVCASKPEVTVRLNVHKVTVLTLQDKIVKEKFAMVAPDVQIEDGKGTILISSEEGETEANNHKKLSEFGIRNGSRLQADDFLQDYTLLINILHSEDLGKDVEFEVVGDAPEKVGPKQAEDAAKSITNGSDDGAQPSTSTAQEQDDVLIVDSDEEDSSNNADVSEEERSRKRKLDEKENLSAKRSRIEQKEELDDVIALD
Sequence of recombinant human SAE enzyme (Q9UBE0 whole entry partner): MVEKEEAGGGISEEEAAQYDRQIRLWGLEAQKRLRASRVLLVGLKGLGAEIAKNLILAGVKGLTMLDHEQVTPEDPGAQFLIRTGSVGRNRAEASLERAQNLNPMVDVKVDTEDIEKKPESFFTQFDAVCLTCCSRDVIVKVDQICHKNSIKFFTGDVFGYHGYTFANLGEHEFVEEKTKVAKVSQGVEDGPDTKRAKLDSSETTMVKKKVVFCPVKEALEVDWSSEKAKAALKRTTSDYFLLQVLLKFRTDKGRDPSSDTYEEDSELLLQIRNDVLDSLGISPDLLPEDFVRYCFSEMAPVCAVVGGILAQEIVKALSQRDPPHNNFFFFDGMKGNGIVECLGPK

Row | SMILES | inhibition at 0.111 µM (Concentration 0.111 μM) | Percent Inhibition (Concentration 0.111 μM) | IC50 (class symbols A/B/C) | Percent Inhibition (SAE inhibition at compound concentration 0.111 μM) | IC50 (SAE inhibition, class symbols, legend in nM)
1 | NS(=O)(=O)OC[C@H]1C[C@@H](Nc2ncncc2C(=O)c2ccc(Cc3ccccc3)s2)[C@H](O)[C@@H]1O [I-115, [(1R,2R,3S,4R)-4-({5-[(5-benzyl-2-thienyl)carbonyl]pyrimidin-4-yl}amino)-2,3-dihydroxycyclopentyl]methyl sulfamate] | 90% |  |  |  | 
2 | Cc1sc(C(=O)c2cncnc2N[C@@H]2C[C@H](COS(N)(=O)=O)[C@@H](O)C2)cc1[S@+]([O-])c1cccc(Cl)c1 (single isomer, unassigned) [I-28b, [(1R,2S,4R)-4-{[5-({4-[(R)-(3-chlorophenyl)sulfinyl]-5-methyl-2-thienyl}carbonyl)pyrimidin-4-yl]amino}-2-hydroxycyclopentyl]methyl sulfamate or [(1R,2S,4R)-4-{[5-({4-[(S)-(3-chlorophenyl)sulfinyl]-5-methyl-2-thienyl}carbonyl)pyrimidin-4-yl]amino}-2-hydroxycyclopentyl]methyl sulfamate] |  | 100 | < 10 nM |  | 
3 | NS(=O)(=O)OC[C@H]1C[C@@H](Nc2ncncc2C(=O)c2cc(Cn3cnc4ccccc43)cs2)C[C@@H]1O [I-192, {(1R,2S,4R)-4-[(5-{[4-(1H-benzimidazol-1-ylmethyl)-2-thienyl]carbonyl}pyrimidin-4-yl)amino]-2-hydroxycyclopentyl}methyl sulfamate] | 66% |  | 10 to 100 nM |  | 
4 | Cc1ccc2c(n1)C(c1cc(C(=O)c3cncnc3N[C@@H]3C[C@H](COS(N)(=O)=O)[C@@H](O)C3)sc1C)OCC2 (single isomer, unassigned) [I-291a, [(1R,2S,4R)-2-hydroxy-4-{[5-({5-methyl-4-[(8S)-2-methyl-5,8-dihydro-6H-pyrano[3,4-b]pyridin-8-yl]-2-thienyl}carbonyl)pyrimidin-4-yl]amino}cyclopentyl]methyl sulfamate or [(1R,2S,4R)-2-hydroxy-4-{[5-({5-methyl-4-[(8R)-2-methyl-5,8-dihydro-6H-pyrano[3,4-b]pyridin-8-yl]-2-thienyl}carbonyl)pyrimidin-4-yl]amino}cyclopentyl]methyl sulfamate] |  |  |  | 17% | 100 to 1000 nM
5 | NS(=O)(=O)OC[C@H]1C[C@@H](Nc2ncncc2C(=O)c2cc(Cc3ccccc3)c(Cc3ccccc3)o2)C[C@@H]1O [I-139, [(1R,2S,4R)-4-{[5-(4,5-dibenzyl-2-furoyl)pyrimidin-4-yl]amino}-2-hydroxycyclopentyl]methyl sulfamate] | 94% |  | < 10 nM |  | 
6 | NS(=O)(=O)OC[C@H]1C[C@@H](Nc2ncncc2C(=O)c2cc(Cc3cccc(Cl)c3)c(Cl)s2)C[C@@H]1O [I-107, {(1R,2S,4R)-4-[(5-{[5-chloro-4-(3-chlorobenzyl)-2-thienyl]carbonyl}pyrimidin-4-yl)amino]-2-hydroxycyclopentyl}methyl sulfamate] | 96% |  | < 10 nM |  | 
7 | N[C@@H](c1cccc(Br)n1)c1cc(C(=O)c2cncnc2N[C@@H]2C[C@H](COS(N)(=O)=O)[C@@H](O)C2)sc1Cl (single isomer, unassigned) [I-18b, [(1R,2S,4R)-4-{[5-({4-[(R)-amino(6-bromopyridin-2-yl)methyl]-5-chloro-2-thienyl}carbonyl)pyrimidin-4-yl]amino}-2-hydroxycyclopentyl]methyl sulfamate or [(1R,2S,4R)-4-{[5-({4-[(S)-amino(6-bromopyridin-2-yl)methyl]-5-chloro-2-thienyl}carbonyl)pyrimidin-4-yl]amino}-2-hydroxycyclopentyl]methyl sulfamate] |  | 99 | < 10 nM |  | 
